Data: patent US20260078130A1, “NAMPT MODULATORS, PREPARATIONS, AND USES THEREOF” (SIRONAX LTD., priority 2022, published 2026)

Experiments:
[1] = target: T1, human enzyme NAMPT (full length) (Homo sapiens, UniProt P43490); experiment: NMN fluorescence biochemical assay (stimulation of NMN synthesis by NAMPT); conditions: for EC50: NMN fluorescence assay, purified human NAMPT 100 nM, concentration giving half-maximal activation, read-out: Enzymatic EC50; for Enzymatic Emax: fold change of maximal activation compared to DMSO
T1 construct: human enzyme NAMPT (full length)
Method in brief: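 Full-length human NAMPT (100 nM) was preincubated 15 min at 37 °C with compound in 50 mM Tris-HCl pH 7.5, 10 mM MgCl2, 2 mM DTT, then reacted 1 h at 37 °C with 50 μM NAM, 100 μM PRPP, 4 mM ATP (stated solution concentrations). NMN was derivatised with acetophenone/KOH then formic acid and read at Ex/Em 382/445 nm; EC50 and Emax (fold over DMSO) reported.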

[2] = system: endogenous NAMPT in U2OS cells; experiment: Cellular NAD+ modulation assay (NAD/NADH-Glo, U2OS cells); assay type: cell-based; conditions: Homo sapiens, 24 hours incubation, cellular NAD+; for maximal fold induction: read-out: Cellular Emax
Method in brief: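 Endogenous NAMPT stimulation in U2OS cells treated with compound dilution series for 24 h at 37 °C. Cells lysed with DTAB base, acid-treated 15 min at 60 °C, neutralized, NAD+ read by NAD/NADH-Glo luminescence after 40 min at room temperature. EC50 and Emax (fold over DMSO) derived.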

T1 sequence (P43490 whole entry): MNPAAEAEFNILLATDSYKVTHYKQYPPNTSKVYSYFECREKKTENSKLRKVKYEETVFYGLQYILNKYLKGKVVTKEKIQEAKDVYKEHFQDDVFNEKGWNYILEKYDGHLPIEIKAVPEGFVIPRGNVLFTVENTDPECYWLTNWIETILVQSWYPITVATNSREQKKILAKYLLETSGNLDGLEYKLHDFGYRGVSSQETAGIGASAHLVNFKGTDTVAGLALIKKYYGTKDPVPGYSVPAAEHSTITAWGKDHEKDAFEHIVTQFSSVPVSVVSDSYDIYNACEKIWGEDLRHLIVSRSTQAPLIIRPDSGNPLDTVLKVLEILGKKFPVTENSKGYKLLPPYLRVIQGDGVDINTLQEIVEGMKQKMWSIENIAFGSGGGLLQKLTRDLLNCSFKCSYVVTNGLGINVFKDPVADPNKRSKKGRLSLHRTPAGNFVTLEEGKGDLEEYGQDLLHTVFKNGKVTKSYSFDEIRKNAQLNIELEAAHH

Cn1nc(C#N)c(Cl)c1CC1c2ccccc2C(=O)N1CC1CC2(CNC(=O)O2)C1 (centres unmarked) [Compound 495, 4-chloro-1-methyl-5-((3-oxo-2-((6-oxo-5-oxa-7-azaspiro[3.4]octan-2-yl)methyl)isoindolin-1-yl)methyl)-1H-pyrazole-3-carbonitrile]
EC50 [1]: 500 to 5000 nM
Enzymatic Emax [1]: B (3≥B>2)
EC50 [2]: < 500 nM
maximal fold induction [2]: > 1.5

Cn1nc(CN2CCC2)c(Cl)c1CC1c2ccccc2C(=O)N1CC1CC2(CNC(=O)O2)C1 (centres unmarked) [Compound 508, 2-((1-((3-(azetidin-1-ylmethyl)-4-chloro-1-methyl-1H-pyrazol-5-yl)methyl)-3-oxoisoindolin-2-yl)methyl)-5-oxa-7-azaspiro[3.4]octan-6-one]
EC50 [1]: < 500 nM
Enzymatic Emax [1]: B (3≥B>2)
EC50 [2]: 500 to 5000 nM
maximal fold induction [2]: > 1.5

CN1CC(c2nn(C)c(CC3c4ccccc4C(=O)N3CC3CC4(CNC(=O)O4)C3)c2Cl)C1 (centres unmarked) [Compound 509, 2-((1-((4-chloro-1-methyl-3-(1-methylazetidin-3-yl)-1H-pyrazol-5-yl)methyl)-3-oxoisoindolin-2-yl)methyl)-5-oxa-7-azaspiro[3.4]octan-6-one]
EC50 [1]: < 500 nM
Enzymatic Emax [1]: A (A>3)
EC50 [2]: 500 to 5000 nM
maximal fold induction [2]: > 1.5

Cn1ncc(Cl)c1CC1c2cc(Cl)cc(F)c2C(=O)N1CC1CC2(CNC(=O)O2)C1 (centres unmarked) [Compound 510, 2-((6-chloro-1-((4-chloro-1-methyl-1H-pyrazol-5-yl)methyl)-4-fluoro-3-oxoisoindolin-2-yl)methyl)-5-oxa-7-azaspiro[3.4]octan-6-one]
EC50 [1]: < 500 nM
Enzymatic Emax [1]: A (A>3)
EC50 [2]: < 500 nM
maximal fold induction [2]: > 1.5

Cn1ncc(Cl)c1CC1c2c(F)cccc2C(=O)N1CC1CC2(CNC(=O)O2)C1 (centres unmarked) [Compound 511, 2-((3-((4-chloro-1-methyl-1H-pyrazol-5-yl)methyl)-4-fluoro-1-oxoisoindolin-2-yl)methyl)-5-oxa-7-azaspiro[3.4]octan-6-one]
EC50 [1]: 500 to 5000 nM
Enzymatic Emax [1]: A (A>3)
EC50 [2]: < 500 nM
maximal fold induction [2]: 1.2 to 1.5

Cn1ncc(Cl)c1CC1c2cc(CN3CC4(COC4)C3)ccc2C(=O)N1CC1CC2(CNC(=O)O2)C1 (centres unmarked) [Compound 512, 2-((5-((2-oxa-6-azaspiro[3.3]heptan-6-yl)methyl)-3-((4-chloro-1-methyl-1H-pyrazol-5-yl)methyl)-1-oxoisoindolin-2-yl)methyl)-5-oxa-7-azaspiro[3.4]octan-6-one]
EC50 [1]: 500 to 5000 nM
Enzymatic Emax [1]: B (3≥B>2)
EC50 [2]: 500 to 5000 nM
maximal fold induction [2]: > 1.5

COc1ccc(CN2C(=O)c3ccccc3C2Cc2ncccc2Br)cn1 (centres unmarked) [Compound 513, 3-((3-bromopyridin-2-yl)methyl)-2-((6-methoxypyridin-3-yl)methyl)isoindolin-1-one]
EC50 [1]: 500 to 5000 nM
Enzymatic Emax [1]: B (3≥B>2)
EC50 [2]: 500 to 5000 nM
maximal fold induction [2]: > 1.5

Cn1ncc(Cl)c1CC1c2cc(C3CN(C(=O)OC(C)(C)C)C3)ccc2C(=O)N1CC1CC2(CNC(=O)O2)C1 (centres unmarked) [Compound 514, tert-butyl 3-(3-((4-chloro-1-methyl-1H-pyrazol-5-yl)methyl)-1-oxo-2-((6-oxo-5-oxa-7-azaspiro[3.4]octan-2-yl)methyl)isoindolin-5-yl)azetidine-1-carboxylate]
EC50 [1]: 500 to 5000 nM
Enzymatic Emax [1]: A (A>3)
EC50 [2]: 500 to 5000 nM
maximal fold induction [2]: > 1.5

Cn1ncc(Cl)c1CC1c2ccccc2C(=O)N1C/C(F)=C\c1c[nH]nn1 (centres unmarked) [Compound 515, (E)-3-((4-chloro-1-methyl-1H-pyrazol-5-yl)methyl)-2-(2-fluoro-3-(1H-1,2,3-triazol-4-yl)allyl)isoindolin-1-one]
EC50 [1]: ≥ 5000 nM
Enzymatic Emax [1]: B (3≥B>2)
EC50 [2]: 500 to 5000 nM
maximal fold induction [2]: > 1.5

Cn1ncc(Cl)c1CC1c2ccccc2C(=O)N1C/C=C/c1nn[nH]c1F (centres unmarked) [Compound 516, (E)-3-((4-chloro-1-methyl-1H-pyrazol-5-yl)methyl)-2-(3-(5-fluoro-1H-1,2,3-triazol-4-yl)allyl)isoindolin-1-one]
EC50 [1]: < 500 nM
Enzymatic Emax [1]: B (3≥B>2)
EC50 [2]: < 500 nM
maximal fold induction [2]: > 1.5

COc1ccc(CN2C(=O)c3ccccc3C2Cc2c(Cl)cnn2C)cc1F (centres unmarked) [Compound 517, 3-((4-chloro-1-methyl-1H-pyrazol-5-yl)methyl)-2-(3-fluoro-4-methoxybenzyl)isoindolin-1-one]
EC50 [1]: 500 to 5000 nM
Enzymatic Emax [1]: B (3≥B>2)
EC50 [2]: < 500 nM
maximal fold induction [2]: 1.2 to 1.5

COc1ccc(CN2C(=O)c3ccccc3C2Cc2c(Cl)cnn2C)cc1 (centres unmarked) [Compound 518, 3-((4-chloro-1-methyl-1H-pyrazol-5-yl)methyl)-2-(4-methoxybenzyl)isoindolin-1-one]
EC50 [1]: 500 to 5000 nM
Enzymatic Emax [1]: B (3≥B>2)
EC50 [2]: < 500 nM
maximal fold induction [2]: 1.2 to 1.5

Cn1ncc(Cl)c1CC1c2ccccc2C(=O)N1C/C(F)=C/c1c[nH]nc1Cl (centres unmarked) [Compound 519, (Z)-3-((4-chloro-1-methyl-1H-pyrazol-5-yl)methyl)-2-(3-(3-chloro-1H-pyrazol-4-yl)-2-fluoroallyl)isoindolin-1-one]
EC50 [1]: 500 to 5000 nM
Enzymatic Emax [1]: B (3≥B>2)
EC50 [2]: 500 to 5000 nM
maximal fold induction [2]: > 1.5

Cn1ncc(Cl)c1CC1c2cc(F)ccc2C(=S)N1CC1CC2(CNC(=O)O2)C1 (centres unmarked) [Compound 521, 2-((3-((4-chloro-1-methyl-1H-pyrazol-5-yl)methyl)-5-fluoro-1-thioxoisoindolin-2-yl)methyl)-5-oxa-7-azaspiro[3.4]octan-6-one]
EC50 [1]: < 500 nM
Enzymatic Emax [1]: B (3≥B>2)
EC50 [2]: 500 to 5000 nM
maximal fold induction [2]: > 1.5

Cn1nc(CN2CCOCC2)c(Cl)c1CC1c2ccccc2C(=O)N1CC1CC2(CNC(=O)O2)C1 (centres unmarked) [Compound 522, 2-((1-((4-chloro-1-methyl-3-(morpholinomethyl)-1H-pyrazol-5-yl)methyl)-3-oxoisoindolin-2-yl)methyl)-5-oxa-7-azaspiro[3.4]octan-6-one]
EC50 [1]: 500 to 5000 nM
Enzymatic Emax [1]: B (3≥B>2)
EC50 [2]: 500 to 5000 nM
maximal fold induction [2]: > 1.5

CN(C)CCOc1nn(C)c(CC2c3ccccc3C(=O)N2CC2CC3(CNC(=O)O3)C2)c1Cl (centres unmarked) [Compound 523, 2-((1-((4-chloro-3-(2-(dimethylamino)ethoxy)-1-methyl-1H-pyrazol-5-yl)methyl)-3-oxoisoindolin-2-yl)methyl)-5-oxa-7-azaspiro[3.4]octan-6-one]
EC50 [1]: < 500 nM
Enzymatic Emax [1]: C (2≥C)
EC50 [2]: 500 to 5000 nM
maximal fold induction [2]: > 1.5

Cn1ncc(Cl)c1CC1c2cc(Cl)ncc2C(=O)N1CC1CC2(CNC(=O)O2)C1 (centres unmarked) [Compound 524, 2-((6-chloro-1-((4-chloro-1-methyl-1H-pyrazol-5-yl)methyl)-3-oxo-1,3-dihydro-2H-pyrrolo[3,4-c]pyridin-2-yl)methyl)-5-oxa-7-azaspiro[3.4]octan-6-one]
EC50 [1]: ≥ 5000 nM
Enzymatic Emax [1]: C (2≥C)
EC50 [2]: 500 to 5000 nM
maximal fold induction [2]: > 1.5

Cc1nc(Cl)c(CC2c3ccccc3C(=O)N2CC2CC3(CNC(=O)O3)C2)n1C (centres unmarked) [Compound 526, 2-((1-((4-chloro-1,2-dimethyl-1H-imidazol-5-yl)methyl)-3-oxoisoindolin-2-yl)methyl)-5-oxa-7-azaspiro[3.4]octan-6-one]
EC50 [1]: 500 to 5000 nM
Enzymatic Emax [1]: B (3≥B>2)
EC50 [2]: 500 to 5000 nM
maximal fold induction [2]: > 1.5

Cc1nn(C)c(CC2c3ccccc3C(=O)N2CC2CC3(CNC(=O)O3)C2)c1Cl (centres unmarked) [Compound 527, 2-((1-((4-chloro-1,3-dimethyl-1H-pyrazol-5-yl)methyl)-3-oxoisoindolin-2-yl)methyl)-5-oxa-7-azaspiro[3.4]octan-6-one]
EC50 [1]: < 500 nM
Enzymatic Emax [1]: B (3≥B>2)
EC50 [2]: < 500 nM
maximal fold induction [2]: > 1.5

[2H]C1([2H])NC(=O)OC12CC(CN1C(=O)c3ccccc3C1Cc1c(Cl)cnn1C)C2 (centres unmarked) [Compound 535, 2-((1-((4-chloro-1-methyl-1H-pyrazol-5-yl)methyl)-3-oxoisoindolin-2-yl)methyl)-5-oxa-7-azaspiro[3.4]octan-6-one-8,8-d2]
EC50 [1]: 500 to 5000 nM
Enzymatic Emax [1]: A (A>3)
EC50 [2]: < 500 nM
maximal fold induction [2]: > 1.5

O=C1NCC2(CC(CN3C(=O)c4ccccc4C3Cc3nnsc3Cl)C2)O1 (centres unmarked) [Compound 538, 2-((1-((5-chloro-1,2,3-thiadiazol-4-yl)methyl)-3-oxoisoindolin-2-yl)methyl)-5-oxa-7-azaspiro[3.4]octan-6-one]
EC50 [1]: ≥ 5000 nM
Enzymatic Emax [1]: C (2≥C)
EC50 [2]: 500 to 5000 nM
maximal fold induction [2]: > 1.5

Cn1ncc(Cl)c1CC1c2ccccc2C2(CC2)N1CC1CC2(CNC(=O)O2)C1 (centres unmarked) [Compound 539, 2-((3′-((4-chloro-1-methyl-1H-pyrazol-5-yl)methyl)spiro[cyclopropane-1,1′-isoindolin]-2′-yl)methyl)-5-oxa-7-azaspiro[3.4]octan-6-one]
EC50 [1]: ≥ 5000 nM
Enzymatic Emax [1]: B (3≥B>2)
EC50 [2]: 500 to 5000 nM
maximal fold induction [2]: 1.2 to 1.5

Cn1ncc(Cl)c1CC1c2ccccc2S(=O)(=O)N1CC1CC2(CNC(=O)O2)C1 (centres unmarked) [Compound 540, 2-((3-((4-chloro-1-methyl-1H-pyrazol-5-yl)methyl)-1,1-dioxidobenzo[d]isothiazol-2(3H)-yl)methyl)-5-oxa-7-azaspiro[3.4]octan-6-one]
EC50 [1]: < 500 nM
Enzymatic Emax [1]: B (3≥B>2)
EC50 [2]: < 500 nM
maximal fold induction [2]: > 1.5
